Results as given in ChEMBL document CHEMBL1138227, “N1-substituted thymine derivatives as mitochondrial thymidine kinase (TK-2) inhibitors” (J Med Chem, 2006).

Experiments:
[1] = Cytotoxicity against human OST TK- cells expressing HSV1 TK in presence of 10 uM 1-[6-(triphenylmethoxy)hexyl]thymine; assay type: cell-based
[2] = Cytotoxicity against human OST TK- cells expressing HSV1 TK in presence of 2.5 uM 1-[6-(triphenylmethoxy)hexyl]thymine; assay type: cell-based
[3] = Cytotoxicity against human OST TK- cells expressing HSV1 TK in presence of 10 uM 1-[6-[1,1-(diphenyl)-1-(4-pyridyl)methoxy]hexyl]thymine; assay type: cell-based
[4] = Cytotoxicity against human OST TK- cells expressing HSV1 TK; assay type: cell-based
[5] = Cytotoxicity against human OST TK- cells expressing HSV1 TK in presence of 2.5 uM 1-[6-[1,1-(diphenyl)-1-(4-pyridyl)methoxy]hexyl]thymine; assay type: cell-based
[6] = Cytotoxicity against human OST TK- cells expressing HSV1 TK in presence of 5 uM 1-[6-[1,1-(diphenyl)-1-(4-pyridyl)methoxy]hexyl]thymine; assay type: cell-based
[7] = Cytotoxicity against human OST TK- cells expressing HSV1 TK in presence of 5 uM 1-[6-(triphenylmethoxy)hexyl]thymine; assay type: cell-based
Thymidine kinase = molecular target: T1, Thymidine kinase (Human alphaherpesvirus 1, UniProt Q9QNF7); experiment: Inhibition of [3H]methyl dThd phosphorylation by HSV1 TK
T1 sequence (Q9QNF7 whole entry): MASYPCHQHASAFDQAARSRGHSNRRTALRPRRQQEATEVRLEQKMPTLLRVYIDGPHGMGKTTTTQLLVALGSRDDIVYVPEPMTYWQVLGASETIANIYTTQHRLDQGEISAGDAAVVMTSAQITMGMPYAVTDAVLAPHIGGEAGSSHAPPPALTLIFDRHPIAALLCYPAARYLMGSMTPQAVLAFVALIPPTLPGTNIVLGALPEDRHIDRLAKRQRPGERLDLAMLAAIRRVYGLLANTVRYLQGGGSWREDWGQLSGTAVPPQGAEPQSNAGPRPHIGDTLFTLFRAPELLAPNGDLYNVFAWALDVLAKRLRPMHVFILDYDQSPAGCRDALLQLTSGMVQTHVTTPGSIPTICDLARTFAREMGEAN

[8] = molecular target: T2, Thymidine kinase 2, mitochondrial (Homo sapiens, UniProt O00142); experiment: Inhibition of [3H]methyl dThd phosphorylation by TK2
T2 sequence (O00142 whole entry): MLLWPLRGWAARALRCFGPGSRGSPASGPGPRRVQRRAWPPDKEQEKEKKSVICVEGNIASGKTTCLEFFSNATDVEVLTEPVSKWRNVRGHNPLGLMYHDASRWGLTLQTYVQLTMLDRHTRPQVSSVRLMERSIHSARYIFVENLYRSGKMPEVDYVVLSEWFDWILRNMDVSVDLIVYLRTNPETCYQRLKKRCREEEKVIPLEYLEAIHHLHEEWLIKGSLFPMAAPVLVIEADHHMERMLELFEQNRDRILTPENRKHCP

Deoxynucleoside kinase = molecular target: T3, Deoxynucleoside kinase (Drosophila melanogaster, UniProt Q9XZT6); experiment: Inhibition of [3H]methyl dThd phosphorylation by Drosophila melanogaster dNK
T3 sequence (Q9XZT6 whole entry): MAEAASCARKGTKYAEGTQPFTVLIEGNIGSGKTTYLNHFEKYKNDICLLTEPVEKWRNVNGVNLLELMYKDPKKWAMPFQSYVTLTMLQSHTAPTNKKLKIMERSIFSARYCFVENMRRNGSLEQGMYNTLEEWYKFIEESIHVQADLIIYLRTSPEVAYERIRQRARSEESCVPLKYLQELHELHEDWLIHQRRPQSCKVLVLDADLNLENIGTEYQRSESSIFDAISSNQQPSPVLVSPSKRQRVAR

[9] = molecular target: T2, Thymidine kinase 2, mitochondrial; experiment: Inhibition of TK2

Compound | IC50 [1] | IC50 [2] | IC50 [3] | IC50 [4] | IC50 [5] | IC50 [6] | IC50 [7] | IC50 (Thymidine kinase) | IC50 [8] | IC50 (Deoxynucleoside kinase) | Ki [9]
Cc1cn([C@@H]2O[C@H](CO)[C@@H](O)[C@@H]2O)c(=O)[nH]c1=O | 150 nM | 55 nM | 370 nM | 6.2 nM | 120 nM | 240 nM | 100 nM |  |  |  | 
Cc1cn(CCCCCCCOC(c2ccccc2)(c2ccccc2)c2ccccc2)c(=O)[nH]c1=O |  |  |  |  |  |  |  | ≥ 50000 nM | 4700 nM | 32000 nM | 
Cc1cn(C/C=C\COC(c2ccccc2)(c2ccccc2)c2ccc(Cl)cc2)c(=O)[nH]c1=O |  |  |  |  |  |  |  | 18000 nM | 2400 nM | 5700 nM | 
Cc1cn(C/C=C\COC(c2ccccc2)(c2ccccc2)c2ccccc2)c(=O)[nH]c1=O |  |  |  |  |  |  |  |  |  | 3300 nM | 
Cc1cn(CCOCCOC(c2ccccc2)(c2ccccc2)c2ccc(Cl)cc2)c(=O)[nH]c1=O |  |  |  |  |  |  |  | 2700 nM | 5200 nM | 45000 nM | 
Cc1cn(CCCCCCOC(c2ccccc2)(c2ccccc2)c2ccncc2)c(=O)[nH]c1=O | 370 nM | 120 nM | 110 nM |  | 50 nM | 81 nM | 240 nM | 2000 nM | 470 nM | 2700 nM | 290 nM
Cc1cn(CCCCCCCCOC(c2ccccc2)(c2ccccc2)c2ccccc2)c(=O)[nH]c1=O |  |  |  |  |  |  |  | > 500000 nM | 45000 nM | 30000 nM | 
Cc1cn(CCOCCOC(c2ccccc2)(c2ccccc2)c2ccccc2)c(=O)[nH]c1=O |  |  |  |  |  |  |  | 17000 nM | 9700 nM | 56000 nM | 
CNC(=O)c1ccc(C(OC/C=C\Cn2cc(C)c(=O)[nH]c2=O)(c2ccccc2)c2ccccc2)cc1 |  |  |  |  |  |  |  | 42000 nM | 1900 nM | 1600 nM | 
CNC(=O)c1ccc(C(OCCCCCCn2cc(C)c(=O)[nH]c2=O)(c2ccccc2)c2ccccc2)cc1 |  |  |  |  |  |  |  | 700 nM | 390 nM | 3500 nM | 
Cc1cn(CCCCCCOC(c2ccccc2)(c2ccccc2)c2cc[n+](C)cc2)c(=O)[nH]c1=O |  |  |  |  |  |  |  | 41000 nM | 23000 nM | 29000 nM | 
Cc1cn(CCOCCOC(c2ccccc2)(c2ccccc2)c2ccncc2)c(=O)[nH]c1=O |  |  |  |  |  |  |  | 21000 nM | 23000 nM | 35000 nM | 
Cc1cn(CCCCCCOC(c2ccccc2)(c2ccccc2)c2ccc(Cl)cc2)c(=O)[nH]c1=O |  |  |  |  |  |  |  | 1000 nM | 1900 nM | 47000 nM | 
Nc1nc2c(ncn2COC(CO)CO)c(=O)[nH]1 [GANCICLOVIR] | 41 nM | 18 nM | 110 nM | 1.9 nM | 50 nM | 81 nM | 33 nM |  |  |  | 
Cc1cn(CCCCCOC(c2ccccc2)(c2ccccc2)c2ccccc2)c(=O)[nH]c1=O |  |  |  |  |  |  |  | 32000 nM | 2500 nM | 15000 nM | 
Cc1cn(C/C=C\COC(c2ccccc2)(c2ccccc2)c2ccncc2)c(=O)[nH]c1=O |  |  |  |  |  |  |  | 25000 nM | 1800 nM | 3400 nM | 
Cc1cn(C/C=C\COC(c2ccccc2)(c2ccccc2)c2cc[n+](C)cc2)c(=O)[nH]c1=O |  |  |  |  |  |  |  | > 500000 nM | 114000 nM | 144000 nM | 
Cc1cn(CCCOC(c2ccccc2)(c2ccccc2)c2ccccc2)c(=O)[nH]c1=O |  |  |  |  |  |  |  | 46000 nM | 45000 nM | 21000 nM | 
Cc1cn(CCCCCCOC(c2ccccc2)(c2ccccc2)c2ccccc2)c(=O)[nH]c1=O | 150 nM | 55 nM | 41 nM |  | 18 nM | 33 nM | 100 nM | 3700 nM | 500 nM | 17000 nM | 
